Experimental data from patent US20170190671A1, “BIS(ARYL)CATECHOL DERIVATIVES AS HERBICIDES” (E I DU PONT DE NEMOURS AND COMPANY, priority 2014, published 2017).

Assays:
Assay type in all cases: in vivo
[1] = tested on: barnyardgrass (Echinochloa crus-galli); assay: Test B flooded paddy; conditions: Echinochloa crus-galli, 336 h; 250 g ai/ha, Flood, 13 to 15 days, scale 0 (no effect) to 100 (complete control); read-out: Plant response rating, Barnyardgrass
In short: (§1)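 Compound was added to standing water 3 cm above soil, flood maintained, and plants held in a greenhouse before visual scoring against controls at 13 to 15 days.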

[2] = tested on: ducksalad (Heteranthera limosa); assay: Test B flooded paddy; conditions: Heteranthera limosa, 336 h; 250 g ai/ha, Flood, 13 to 15 days, scale 0 (no effect) to 100 (complete control); read-out: Plant response rating, Ducksalad
In short: as §1

rice (Oryza sativa) = assay: Test B flooded paddy; conditions: Oryza sativa, 336 h; 250 g ai/ha, Flood, 13 to 15 days, scale 0 (no effect) to 100 (complete control); read-out: Plant response rating, Rice
In short: as §1

[3] = tested on: sedge, umbrella (small-flower umbrella sedge, Cyperus difformis); assay: Test B flooded paddy; conditions: Cyperus difformis, 336 h; 250 g ai/ha, Flood, 13 to 15 days, scale 0 (no effect) to 100 (complete control); read-out: Plant response rating, Sedge, Umbrella
In short: as §1

[4] = tested on: barnyardgrass (Echinochloa crus-galli); assay: Test A preemergence; conditions: Echinochloa crus-galli, pre-emergence, 240 h, 0 to 100 scale, read-out: Plant response rating, Barnyardgrass; for pest or weed control at 125 g/ha: 125 g ai/ha; for pest or weed control at 500 g/ha: 500 g ai/ha
In short: (§2)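 Compounds in non-phytotoxic solvent with surfactant applied as soil spray preemergence, or postemergence to plants 2-10 cm at one- to two-leaf stage, in loam/sand. After approximately 10 days in greenhouse, injury rated visually versus untreated controls, 0 (no effect) to 100 (complete control).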

[5] = tested on: giant foxtail (Setaria faberii); assay: Test A preemergence; conditions: Setaria faberi, pre-emergence, 240 h; for pest or weed control at 125 g/ha: 125 g ai/ha; for pest or weed control at 500 g/ha: 500 g ai/ha
In short: as §2

[6] = tested on: pigweed (Amaranthus retroflexus); assay: Test A preemergence; conditions: Amaranthus retroflexus, pre-emergence, 240 h; for pest or weed control at 125 g/ha: 125 g ai/ha; for pest or weed control at 500 g/ha: 500 g ai/ha
In short: as §2

[7] = tested on: barnyardgrass (Echinochloa crus-galli); assay: Test A postemergence; conditions: Echinochloa crus-galli, post-emergence, 240 h, 0 to 100 scale, read-out: Plant response rating, Barnyardgrass; for pest or weed control at 125 g/ha: 125 g ai/ha; for pest or weed control at 500 g/ha: 500 g ai/ha
In short: as §2

corn (Zea mays) = assay: Test A postemergence; conditions: Zea mays, post-emergence, 240 h, 0 to 100 scale; for Corn plant response rating (crop injury, 0 = no effect, 100 = complete kill) at 125 g/ha: 125 g ai/ha; for Corn plant response rating (crop injury, 0 = no effect, 100 = complete kill) at 500 g/ha: 500 g ai/ha
In short: as §2

[8] = tested on: giant foxtail (Setaria faberii); assay: Test A postemergence; conditions: Setaria faberi, post-emergence, 240 h, 0 to 100 scale, read-out: Plant response rating, Foxtail, Giant; for pest or weed control at 125 g/ha: 125 g ai/ha; for pest or weed control at 500 g/ha: 500 g ai/ha
In short: as §2

[9] = tested on: pigweed (Amaranthus retroflexus); assay: Test A postemergence; conditions: Amaranthus retroflexus, post-emergence, 240 h, 0 to 100 scale, read-out: Plant response rating, Pigweed; for pest or weed control at 125 g/ha: 125 g ai/ha; for pest or weed control at 500 g/ha: 500 g ai/ha
In short: as §2

[10] = tested on: wheat (Triticum aestivum); assay: Test A postemergence; conditions: Triticum aestivum, post-emergence, 240 h, 0 to 100 scale, read-out: Plant response rating, Wheat; for plant injury at 125 g/ha: 125 g ai/ha; for plant injury at 500 g/ha: 500 g ai/ha
In short: as §2

[11] = tested on: pigweed (Amaranthus retroflexus); assay: Test C postemergence; conditions: Amaranthus retroflexus, post-emergence, 336 h, Postemergence, scale 0 to 100, read-out: Plant response rating, Pigweed; for pest or weed control at 31 g/ha: 31 g ai/ha; for pest or weed control at 62 g/ha: 62 g ai/ha; for pest or weed control at 125 g/ha: 125 g ai/ha
Source text: (§3) Seeds of plant species selected from blackgrass (Alopecurus myosuroides), Italian ryegrass (Lolium multiflorum), winter wheat (Triticum aestivum), galium (catchweed bedstraw, Galium aparine), corn (Zea mays), large (Lg) crabgrass (Digitaria sanguinalis), giant foxtail (Setaria faberii), johnsongrass (Sorghum halepense), lambsquarters (Chenopodium album), morningglory (Ipomoea coccinea), yellow nutsedge (Cyperus esculentus), pigweed (Amaranthus retroflexus), ragweed (common ragweed, Ambrosia elatior), soybean (Glycine max), barnyardgrass (Echinochloa crus-galli), oilseed rape (Brassica napus), waterhemp (common waterhemp, Amaranthus rudis), and velvetleaf (Abutilon theophrasti) were planted into a blend of loam soil and sand and treated preemergence with test chemicals formulated in a non-phytotoxic solvent mixture which included a surfactant.
(§4) At the same time, plants selected from these crop and weed species and also chickweed (common chickweed, Stellaria media), kochia (Kochia scoparia), and wild oat (Avena fatua), were planted in pots containing Redi-Earth® planting medium (Scotts Company, 14111 Scottslawn Road, Marysville, Ohio 43041) comprising spaghnum peat moss, vermiculite, wetting agent and starter nutrients and treated with postemergence applications of test chemicals formulated in the same manner. Plants ranged in height from 2 to 18 cm (1- to 4-leaf stage) for postemergence treatments. Treated plants and controls were maintained in a greenhouse for 13 to 15 days, after which time all species were compared to controls and visually evaluated. Plant response ratings, summarized in Table C, are based on a scale of 0 to 100 where 0 is no effect and 100 is complete control. A dash (-) response means no test result.

[12] = tested on: waterhemp (common waterhemp, Amaranthus rudis); assay: Test C postemergence; conditions: Amaranthus tuberculatus, post-emergence, Postemergence, scale 0 to 100, read-out: Plant response rating, Waterhemp; for pest or weed control at 31 g/ha: 31 g ai/ha; for pest or weed control at 62 g/ha: 62 g ai/ha; for pest or weed control at 125 g/ha: 125 g ai/ha
Source text: as §3, §4

[13] = 0 to 100 scale, read-out: Plant response rating, Foxtail, Giant
[14] = 0 to 100 scale, read-out: Plant response rating, Pigweed

| Structure (SMILES) | pest or weed control at 250 g/ha [1] [%] | pest or weed control at 250 g/ha [2] [%] | plant injury at 250 g/ha (rice (Oryza sativa)) [%] | pest or weed control at 250 g/ha [3] [%] | pest or weed control at 125 g/ha [4] [%] | pest or weed control at 500 g/ha [4] [%] | pest or weed control at 500 g/ha [5, 13] [%] | pest or weed control at 500 g/ha [6, 14] [%] | pest or weed control at 125 g/ha [7] [%] | pest or weed control at 500 g/ha [7] [%] | Corn plant response rating (crop injury, 0 = no effect, 100 = complete kill) at 125 g/ha (corn (Zea mays)) [%] | Corn plant response rating (crop injury, 0 = no effect, 100 = complete kill) at 500 g/ha (corn (Zea mays)) [%] | pest or weed control at 125 g/ha [8] [%] | pest or weed control at 500 g/ha [8] [%] | pest or weed control at 125 g/ha [9] [%] | pest or weed control at 500 g/ha [9] [%] | plant injury at 125 g/ha [10] [%] | plant injury at 500 g/ha [10] [%] | pest or weed control at 31 g/ha [11] [%] | pest or weed control at 62 g/ha [11] [%] | further results |
| --- | --- | --- | --- | --- | --- | --- | --- | --- | --- | --- | --- | --- | --- | --- | --- | --- | --- | --- | --- | --- | --- |
| N#Cc1cccc(Oc2ncc(Cl)cn2)c1Oc1ncc(Cl)cn1 [Compound 3, 2,3-bis[(5-chloro-2-pyrimidinyl)oxy]benzonitrile] | 20 | 90 | 35 | 90 | 100 | 100 | 100 | 100 | 90 | 90 | 50 | 80 | 90 | 90 | 100 | 100 | 60 | 80 | 75 | 80 | pest or weed control at 125 g/ha [5, 13]: 100%; pest or weed control at 125 g/ha [6, 14]: 100%; pest or weed control at 125 g/ha [11]: 90%; pest or weed control at 250 g/ha ([11]; 250 g ai/ha): 100%; pest or weed control at 31 g/ha [12]: 75%; pest or weed control at 62 g/ha [12]: 75%; pest or weed control at 125 g/ha [12]: 85%; pest or weed control at 250 g/ha ([12]; 250 g ai/ha): 98% |
| Fc1cccc(Oc2ncc(Cl)cn2)c1Oc1ncc(Cl)cn1 [Compound 21, 2,2′-[[3-fluoro-1,2-phenylene]bis(oxy)]bis[5-chloropyrimidine]] | 35 | 100 | 40 | 90 | 90 | 100 | 100 | 100 | 80 | 90 | 50 | 60 | 90 | 90 | 100 | 100 | 50 | 60 | 75 | 85 | pest or weed control at 125 g/ha ([5]; 0 to 100 scale (0 no effect, 100 complete control), read-out: Foxtail, Giant plant response rating): 100%; pest or weed control at 125 g/ha ([6]; 0 to 100 scale (0 no effect, 100 complete control), read-out: Pigweed plant response rating): 100%; pest or weed control at 125 g/ha [11]: 95%; pest or weed control at 31 g/ha [12]: 60%; pest or weed control at 62 g/ha [12]: 50%; pest or weed control at 125 g/ha [12]: 65% |
